Source: patent publication US20010000177A1, “Novel class of thiomorpholino substituted thiazoles” (priority 1999, published 2001)
≈ marks a conversion by molar mass, not a printed value.

Legend:
Format in all cases: cell-based
[1] = system: Candida and Cryptococcus strains (organism not given); test: Broth microdilution antifungal activity, Table II first MIC/MCC column pair; conditions: for MIC = Minimum inhibitory concentration (50% Inhibition) / MCC = Minimum cytolytic concentration: first column pair of Table II; for MIC = Minimum inhibitory concentration (50% Inhibition): YNB broth pH 7.0; for MCC = Minimum cytolytic concentration: subculture on SDA plate
Procedure: (§1) Organisms: Three strains of Candida (Candida parpsilosis, Candida tropicalis, Candida albicans-ATCC 36082) as well as Cryptococcus neoformans were used for the initial testing. […] All clinical strains used in this study were blood culture isolates from the Clinical Microbiology Laboratory of Harbor-UCLA Medical Center, Torrance, Calif. The organisms were maintained on Sabourahd Dextrose Agar slants at 4° C. For experimentation, singlet suspensions of each organism were prepared by growing the yeast overnight at 27° C. on a rotating drum in yeast-nitrogen base broth (YNB) with amino acids (Difco, Detroit, Mich.), pH 7.0 with 0.05M morpholinepropanesulfonic acid (MOPS). The suspension was then centrifuged and washed twice with 0.85% NaCl. This was followed by sonication of the washed cell suspension for 4s (Branson Sonifier, model 350, Danbury, Conn.). The singlet blastospores were counted in a hemocytometer and adjusted to the desired concentration in 0.85% NaCl.
(§2) Antifungal Activity: The antifungal activity of the compounds and Fluconazole against the Candida and Cryptococcus strains were determined using a modification of a broth microdilution technique. Test compounds were diluted in DMSO to a 1.0 mg/ml ratio then diluted to 64 μg/ml in YNB broth, pH 7.0 with MOPS (Fluconazole was used as the control). This was to provide a working solution of each compound. Using a 96-well plate, wells 1 and 3 through 12 were prepared with YNB broth, […] dilutions of the compound solution were made in wells 2 through 11 (concentration ranges were 64 to 0.125 μg/ml). Well one served as a sterility control and blank for the spectrophotometric assays. Well twelve served as a growth control. The microtiter plates were inoculated with 10 ul in each of well 2 through 11 (final inoculum size was 10^4 organisms/ml). Inoculated plates were incubated for 48 hrs., at 35° C. The MIC values were determined spectrophotometrically by measuring the absorbance at 420 nm (Automatic Microplate Reader, DuPont Instruments, Wilmington, Del.) after agitation of the plates for 2 min with a vortex-mixer (Vorte-Genie 2 Mixer, Scientific Industries, Inc., Bolemia, N.Y.). […] With the turbidity assay this was defined as the lowest drug concentration at which turbidity in the well was <50% of the control (IC50) Minimal Cytolytic Concentrations (MCC) were determined by subculturing all wells from the 96-well plate onto a Sabourahd Dextrose Agar (SDA) plate and incubated for 1 to 2 days at 35° C. and the viability was checked.

[2] = system: Candida and Cryptococcus strains (organism not given); test: Broth microdilution antifungal activity, Table II second MIC/MCC column pair; conditions: second column pair of Table II; for MIC = Minimum inhibitory concentration (50% Inhibition): 48 hrs, 35° C., YNB broth pH 7.0; for MCC = Minimum cytolytic concentration: subculture on SDA plate
Procedure: (§3) Organisms: Three strains of Candida (Candida parpsilosis, Candida tropicalis, Candida albicans-ATCC 36082) as well as Cryptococcus neoformans were used for the initial testing. Active compounds were then tested against fluconazole resistant Candida albicans, Candida krusei, Torulopsis glabrata, and Cryptococcus neoformans along with Sporothrix shenkii and Aspergillus flavus in the secondary round of testing. All clinical strains used in this study were blood culture isolates from the Clinical Microbiology Laboratory of Harbor-UCLA Medical Center, Torrance, Calif. The organisms were maintained on Sabourahd Dextrose Agar slants at 4° C. For experimentation, singlet suspensions of each organism were prepared by growing the yeast overnight at 27° C. on a rotating drum in yeast-nitrogen base broth (YNB) with amino acids (Difco, Detroit, Mich.), pH 7.0 with 0.05M morpholinepropanesulfonic acid (MOPS). The suspension was then centrifuged and washed twice with 0.85% NaCl. This was followed by sonication of the washed cell suspension for 4s (Branson Sonifier, model 350, Danbury, Conn.). The singlet blastospores were counted in a hemocytometer and adjusted to the desired concentration in 0.85% NaCl.
as §2

[3] = system: Candida and Cryptococcus strains (organism not given); test: Broth microdilution antifungal activity, Table II third MIC/MCC column pair; conditions: for MIC = Minimum inhibitory concentration (50% Inhibition): 48 hrs, 35° C., YNB broth pH 7.0; for MCC = Minimum cytolytic concentration: subculture on SDA plate
Procedure: as §3, §2

[4] = system: Candida and Cryptococcus strains (organism not given); test: Broth microdilution antifungal activity, Table II fourth MIC/MCC column pair; conditions: for MIC = Minimum inhibitory concentration (50% Inhibition) / MCC = Minimum cytolytic concentration: fourth column pair of Table II; for MIC = Minimum inhibitory concentration (50% Inhibition): YNB broth pH 7.0; for MCC = Minimum cytolytic concentration: subculture on SDA plate
Procedure: as §1, §2

SMILES | MIC = Minimum inhibitory concentration (50% Inhibition) ([1]; 48 hrs, 35° C.) [µg/mL] | MCC = Minimum cytolytic concentration [1] [µg/mL] | MIC = Minimum inhibitory concentration (50% Inhibition) [2] [µg/mL] | MCC = Minimum cytolytic concentration [2] [µg/mL] | MIC = Minimum inhibitory concentration (50% Inhibition) [3] [µg/mL] | MCC = Minimum cytolytic concentration [3] [µg/mL] | MIC = Minimum inhibitory concentration (50% Inhibition) ([4]; 48 hrs, 35° C.) [µg/mL] | MCC = Minimum cytolytic concentration [4] [µg/mL] | MIC ([1]; Candida, 48 h, pH 7, first column pair of Table II, 48 hrs, 35° C., YNB broth pH 7.0, read-out: MIC = Minimum inhibitory concentration (50% Inhibition)) [µg/mL] | MIC ([4]; Candida, 48 h, pH 7, fourth column pair of Table II, 48 hrs, 35° C., YNB broth pH 7.0, read-out: MIC = Minimum inhibitory concentration (50% Inhibition)) [µg/mL]
CN(C)Cc1ccc(-c2csc(-c3cccc([N+](=O)[O-])c3)n2)cc1 [Example 1aa, 2-(3′-nitrophenyl)-4-[4″-(dimethylaminomethyl)phenyl]-thiazole] | 4 (≈ 11.8 µM) | 4 | 4 (≈ 11.8 µM) | 4 | 4 (≈ 11.8 µM) | 4 | 4 (≈ 11.8 µM) | 4 | – | –
CN(C/C=C/c1ccccc1)Cc1cccc2ccccc12 [Naftifine, reference compound] | – | – | – | – | – | – | – | – | 32 (≈ 111 µM) | 4 (≈ 13.9 µM)
CCCN(C)Cc1ccc(-c2csc(-c3ccc(C(F)(F)F)cc3F)n2)cc1 [Example 6f, 2-(2′-fluoro-4′-trifluoromethylphenyl)-4-[4″-(N-methyl-N-propylamino-methyl)phenyl]thiazole] | 8 (≈ 19.6 µM) | 16 | 4 (≈ 9.79 µM) | 8 | 2 (≈ 4.9 µM) | 8 | 4 (≈ 9.79 µM) | 8 | – | –
CN(C)CCNCc1ccc(-c2csc(-c3ccc(Cl)cc3)n2)cc1 [Example 1jj, 2-(4′-chlorophenyl)-4-[4″-(N-(2-dimethylaminoethyl)aminomethyl)phenyl]thiazole] | 8 (≈ 21.5 µM) | 8 | 4 (≈ 10.8 µM) | 4 | 4 (≈ 10.8 µM) | 4 | 8 (≈ 21.5 µM) | 8 | – | –
CCCN(C)Cc1ccc(-c2csc(-c3ccc(I)cc3)n2)cc1 [Example 6g, 2-(4′-iodophenyl)-4-[4″-(N-methyl-N-propylaminomethyl)phenyl]-thiazole] | 8 (≈ 17.8 µM) | 4 | 4 (≈ 8.92 µM) | 2 | 8 (≈ 17.8 µM) | 4 | 4 (≈ 8.92 µM) | 4 | – | –
CNCCN(C)Cc1ccc(-c2csc(-c3ccc(Cl)cc3)n2)cc1 [Example 1tt, 2-(4′-chlorophenyl)-4-[4″-(N-methyl-N-(2-N-methylaminoethyl)-amino-methyl)phenyl]thiazole] | 4 (≈ 10.8 µM) | 16 | 4 (≈ 10.8 µM) | 16 | 2 (≈ 5.38 µM) | 16 | 2 (≈ 5.38 µM) | 4 | – | –
C=CCNCc1ccc(-c2csc(-c3ccc(F)cc3)n2)cc1 [Example 1n, 2-(4′-fluorophenyl)-4-[4″-(N-allylaminomethyl)phenyl]thiazole] | 8 (≈ 24.7 µM) | 16 | 4 (≈ 12.3 µM) | 8 | 8 (≈ 24.7 µM) | 16 | 8 (≈ 24.7 µM) | 8 | – | –
COc1ccc(-c2nc(-c3ccc(CN(C)CCO)cc3)cs2)cc1[N+](=O)[O-] [Example 1ll, 2-(4′-methoxy-3′-nitrophenyl)-4-[4″-(N-methyl-N-(2-hydroxy-ethyl)amino-methyl)phenyl]thiazole] | 8 (≈ 20 µM) | 8 | 2 (≈ 5.01 µM) | 2 | 4 (≈ 10 µM) | 4 | 2 (≈ 5.01 µM) | 8 | – | –
CCCN(C)Cc1ccc(-c2csc(-c3ccc([N+](=O)[O-])cc3)n2)cc1 [Example 1o, 2-(4′-nitrophenyl)-4-[4″-(N-methyl-N-propylaminomethyl)phenyl]thiazole] | 1 (≈ 2.72 µM) | 4 | 1 (≈ 2.72 µM) | 4 | 2 (≈ 5.44 µM) | 32 | 0.125 (≈ 0.34 µM) | 2 | – | –
COc1ccc(-c2nnc(-c3ccc(CN(C)C)cc3)o2)cc1 [Example 9j, 2-(4′-methoxyphenyl)-5-[4″-(dimethylaminomethyl)phenyl]-1,3,4-oxadiazole] | 4 (≈ 12.9 µM) | 32 | 8 (≈ 25.9 µM) | 8 | 0.5 (≈ 1.62 µM) | 0.5 | 0.25 (≈ 0.808 µM) | 8 | – | –
C=CCN(C)Cc1ccc(-c2csc(-c3cccc([N+](=O)[O-])c3)n2)cc1 [Example 1k, 2-(3′-nitrophenyl)-4-[4″-(N-methyl-N-allylaminomethyl)phenyl]thiazole] | 0.5 (≈ 1.37 µM) | 1 | 0.25 (≈ 0.684 µM) | 0.5 | 0.25 (≈ 0.684 µM) | 0.25 | 0.25 (≈ 0.684 µM) | 0.5 | – | –
C[C@@H]1[C@H](O)[C@@H](C)/C=C/C=C/C=C/C=C/C=C/C=C/C=C/[C@H](O[C@@H]2O[C@H](C)[C@@H](O)[C@H](N)[C@@H]2O)C[C@@H]2O[C@](O)(C[C@@H](O)C[C@@H](O)[C@H](O)CC[C@@H](O)C[C@@H](O)CC(=O)O[C@H]1C)C[C@H](O)[C@H]2C(=O)O [Amp-B, amphotericin B, reference compound] | 0.25 (≈ 0.271 µM) | – | 0.25 (≈ 0.271 µM) | – | – | – | <0.03 | – | – | –
